Test results taken from patent US8106055B2, “Substituted amide compounds” (Gruenenthal GmbH, priority 2007, dated 2012).

Legend:
[1] = target: T1, serotonin (5-HT) reuptake (Rattus norvegicus, UniProt P31652); assay: Inhibition of serotonin (5HT) reuptake in synaptosomes from rat brain; type: biochemical; details: test concentration of 10 μM
T1 construct: synaptosomes are freshly isolated from areas of the rat brain; from tissue; host or cells: rat brain synaptosomes (P2 fraction)
In short: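 Freshly isolated rat brain synaptosomes (P2 fraction) used for 5-HT reuptake. Test compound at 10 μM, activity given as % inhibition.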

[2] = target: T2, human bradykinin 1 receptor (B1R) (Homo sapiens, UniProt P46663); assay: Functional investigation on the human bradykinin 1 receptor (B1R), Ca2+ FLIPR assay in CHO K1 hB1R cells; type: cell-based; details: B1R antagonism human; test substance 10 μM; Ca2+ FLIPR, CHO K1 hB1R cells
T2 construct: expressed in transfected cells; host or cells: CHO K1 cells
T2 sequence (P46663 1-353): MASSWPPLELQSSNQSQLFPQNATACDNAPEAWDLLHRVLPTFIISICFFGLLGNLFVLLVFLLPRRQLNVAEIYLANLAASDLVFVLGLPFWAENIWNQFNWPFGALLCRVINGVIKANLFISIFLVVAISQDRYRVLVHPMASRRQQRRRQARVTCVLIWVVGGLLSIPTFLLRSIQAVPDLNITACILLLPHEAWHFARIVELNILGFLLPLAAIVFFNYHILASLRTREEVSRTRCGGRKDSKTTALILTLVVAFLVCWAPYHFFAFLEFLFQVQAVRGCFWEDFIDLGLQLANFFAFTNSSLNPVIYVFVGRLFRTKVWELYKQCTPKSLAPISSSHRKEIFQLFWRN
In short: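 Cells were dye-loaded with Fluo-4 plus probenecid, then test substances added and Ca2+ influx compared with agonist control for % activation. After 10-20 min, EC80 agonist (Lys-Des-Arg9-bradykinin human; Des-Arg9-bradykinin rat) was applied; suppression gave % inhibition and IC50 values.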

T1 sequence (P31652 whole entry): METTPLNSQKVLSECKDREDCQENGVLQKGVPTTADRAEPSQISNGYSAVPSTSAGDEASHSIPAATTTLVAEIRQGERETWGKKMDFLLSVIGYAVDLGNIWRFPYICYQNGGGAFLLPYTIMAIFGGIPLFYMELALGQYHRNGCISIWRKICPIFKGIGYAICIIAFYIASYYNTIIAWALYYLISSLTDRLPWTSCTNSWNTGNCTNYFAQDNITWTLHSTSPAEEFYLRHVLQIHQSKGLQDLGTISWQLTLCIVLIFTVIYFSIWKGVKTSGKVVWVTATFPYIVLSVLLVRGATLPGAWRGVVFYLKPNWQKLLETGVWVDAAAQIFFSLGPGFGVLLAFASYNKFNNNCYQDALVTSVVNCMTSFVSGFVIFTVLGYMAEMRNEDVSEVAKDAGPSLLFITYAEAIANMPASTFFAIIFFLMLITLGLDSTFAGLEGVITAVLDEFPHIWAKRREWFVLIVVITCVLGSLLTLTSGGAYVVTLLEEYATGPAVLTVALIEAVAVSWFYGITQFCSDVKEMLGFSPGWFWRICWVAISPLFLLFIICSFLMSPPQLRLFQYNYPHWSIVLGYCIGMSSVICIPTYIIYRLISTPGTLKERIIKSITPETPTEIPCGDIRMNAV

SMILES	5-HT (inhibition of reuptake of serotonin, % inhibition) [1]	B1R Ant. h [10 μM] % Inhibition [2]
COc1ccc(S(=O)(=O)N2CCCCC2COCC(=O)NC2CCC(C(c3ccc(F)cc3)N(C)C)CC2)cc1 (centres unmarked) [Example 450]	90%	40%
CN(C)C(CCc1ccccc1)C1CCC(CNC(=O)COC2CCCCC2N(C)S(=O)(=O)c2ccc(Cl)c(Cl)c2)CC1 (centres unmarked) [Example 451]	84%	87%
Cc1ccc(S(=O)(=O)N(C)CCOCC(=O)NCC2CCC(C(CCc3ccccc3)N(C)C)CC2)cc1 (centres unmarked) [Example 452]	88%	37%
COc1cc(C)c(S(=O)(=O)N2CCC(OCC(=O)NC3CCC(C(c4ccc(F)cc4)N(C)C)CC3)CC2)c(C)c1C (centres unmarked) [Example 454]	95%	45%
CN(C)C(c1ccc(F)cc1)C1CCC(CCNC(=O)COC2CCN(S(=O)(=O)c3ccc(Cl)cc3Cl)C2)CC1 (centres unmarked) [Example 456]	88%	80%
Cc1ccc(S(=O)(=O)N(C)CCOCC(=O)NCCC2CCC(C(c3ccc(F)cc3)N(C)C)CC2)cc1 (centres unmarked) [Example 457]	90%	14%
COc1cc(C)c(S(=O)(=O)N(C)CCOCC(=O)NCC2CCC(C(c3ccc(F)cc3)N(C)C)CC2)c(C)c1 (centres unmarked) [Example 458]	85%	103%
CN(C)C(c1ccc(Cl)cc1)C1CCC(CNC(=O)COCCN(C)S(=O)(=O)c2ccc(Cl)cc2Cl)CC1 (centres unmarked) [Example 459]	68%	29%
COc1ccc(S(=O)(=O)N(C)CCOCC(=O)NCCC2CCC(C(c3ccc(Cl)cc3)N(C)C)CC2)cc1 (centres unmarked) [Example 460]	86%	50%
COc1ccc(S(=O)(=O)N2CCCC2COCC(=O)NC2CCC(C(c3ccc(F)cc3)N(C)C)CC2)cc1 (centres unmarked) [Example 461]	94%	13%
COc1ccc(S(=O)(=O)N2CCCCC2COCC(=O)NCCC2CCC(C(c3ccc(F)cc3)N(C)C)CC2)cc1OC (centres unmarked) [Example 462]	90%	−8%
CN(C)C(c1ccc(F)cc1)C1CCC(NC(=O)COC2CCN(S(=O)(=O)c3ccccc3)C2)CC1 (centres unmarked) [Example 463]	97%	−7%
CN(C)C(c1ccc(F)cc1)C1CCC(CCNC(=O)COC2CCN(S(=O)(=O)c3ccc(Cl)cc3)C2)CC1 (centres unmarked) [Example 464]	88%	−2%
CN(C)C(c1ccc(F)cc1)C1CCC(CCNC(=O)COC2CCN(S(=O)(=O)c3cccc(C(F)(F)F)c3)C2)CC1 (centres unmarked) [Example 466]	89%	7%
COc1cc(C)c(S(=O)(=O)N2CCC(OCC(=O)NCCC3CCC(C(c4ccc(F)cc4)N(C)C)CC3)C2)c(C)c1C (centres unmarked) [Example 467]	95%	67%
COc1cc(C)c(S(=O)(=O)N2CCCC(OCC(=O)NCCC3CCC(C(c4ccc(F)cc4)N(C)C)CC3)C2)c(C)c1C (centres unmarked) [Example 468]	95%	50%
COc1ccc(S(=O)(=O)N2CCCCC2COCC(=O)NCC2CCC(C(CCc3ccccc3)N(C)C)CC2)cc1 (centres unmarked) [Example 469]	87%	91%

SMILES	5-HT (inhibition of reuptake of serotonin, % inhibition) [1]	B1R Ant. h [10 μM] % Inhibition [2]
CN(C)C(c1ccc(F)cc1)C1CCC(CCNC(=O)COCCC2CCN(S(=O)(=O)c3ccccc3)CC2)CC1 (centres unmarked) [Example 470]	82%	4%
CN(C)C(c1ccc(Cl)cc1)C1CCC(CNC(=O)COC2CCN(S(=O)(=O)c3ccccc3)CC2)CC1 (centres unmarked) [Example 471]	94%	7%
COc1cc(C)c(S(=O)(=O)N2CCC(OCC(=O)NCCC3CCC(C(c4ccc(Cl)cc4)N(C)C)CC3)CC2)c(C)c1C (centres unmarked) [Example 472]	95%	1%
COc1cc(C)c(S(=O)(=O)N(CCOCC(=O)NCC2CCC(C(c3ccc(Cl)cc3)N(C)C)CC2)Cc2ccccc2)c(C)c1 (centres unmarked) [Example 473]	64%	52%
COc1ccc(S(=O)(=O)N2CCCCC2COCC(=O)NCCC2CCC(C(c3ccc(Cl)cc3)N(C)C)CC2)c(OC)c1 (centres unmarked) [Example 474]	88%	17%
Cc1cc(C)c(S(=O)(=O)N2CCC(OCC(=O)NCC3CCC(C(CCc4ccccc4)N(C)C)CC3)C2)c(C)c1 (centres unmarked) [Example 475]	87%	103%
CN(C)C(c1cccc(F)c1)C1CCC(CNC(=O)COC2CCN(S(=O)(=O)c3ccccc3)CC2)CC1 (centres unmarked) [Example 477]	95%	−16%
CN(C)C(c1ccc(F)cc1)C1CCC(NC(=O)COCC2CCCN(S(=O)(=O)c3ccccc3)C2)CC1 (centres unmarked) [Example 478]	97%	−3%
CN(C)C(c1ccc(F)cc1)C1CCC(CCNC(=O)COCC2CCCN(S(=O)(=O)c3ccccc3)C2)CC1 (centres unmarked) [Example 479]	97%	18%
COc1cc(C)c(S(=O)(=O)N2CCC(OCC(=O)NCCC3CCC(C(c4ccc(F)cc4)N(C)C)CC3)CC2)c(C)c1C (centres unmarked) [Example 480]	98%	23%
COc1cc(C)c(S(=O)(=O)N2CCC(CCOCC(=O)NCC3CCC(C(c4ccc(F)cc4)N(C)C)CC3)CC2)c(C)c1C (centres unmarked) [Example 481]	88%	9%
COc1ccc(S(=O)(=O)N(C)CCOCC(=O)NCCC2CCC(C(c3ccc(F)cc3)N(C)C)CC2)cc1OC (centres unmarked) [Example 484]	96%	−21%
COc1cc(C)c(S(=O)(=O)N2CCCC(OCC(=O)NCCC3CCC(C(c4ccc(Cl)cc4)N(C)C)CC3)C2)c(C)c1C (centres unmarked) [Example 485]	92%	5%
CN(C)C(c1ccc(F)cc1)C1CCC(CCNC(=O)COCCN(C)S(=O)(=O)c2ccc(F)cc2)CC1 (centres unmarked) [Example 487]	101%	9%
CN(C)C(c1ccc(F)cc1)C1CCC(CNC(=O)COC2CCCN(S(=O)(=O)c3ccccc3)C2)CC1 (centres unmarked) [Example 488]	94%	4%
CN(C)C(c1ccc(F)cc1)C1CCC(CCNC(=O)COCCN(Cc2ccccc2)S(=O)(=O)c2ccccc2)CC1 (centres unmarked) [Example 489]	97%	34%
Cc1cc(C)c(S(=O)(=O)N(C)CCOCC(=O)NC2CCC(C(c3ccc(F)cc3)N(C)C)CC2)c(C)c1 (centres unmarked) [Example 490]	86%	45%
